Data published in publication PMC6364417, “Kinase inhibitor library screening identifies synergistic drug combinations effective in sensitive and resistant melanoma cells” (Journal of Experimental & Clinical Cancer Research : CR, 2019).
Read-outs that look alike come from different tables or passages of the source.

Columns and labels:
[1] = system: A375-GP cells (Dabrafenib-resistant); assay: Dose-response curves and IC50, PrestoBlue cell viability, 72 h; format: cell-based, human; settings: n.e. = did not suppress growth below 50% in the tested concentration range; for IC50: read-out: Half-maximal inhibitory concentration value (IC50), Mean
[2] = system: 501Mel-XP cells (Vemurafenib-resistant); assay: as above; settings: read-out: Half-maximal inhibitory concentration (IC50)
A375 cells (parental) = assay: as above; format: cell-based, human; settings: for IC50: read-out: Half-maximal inhibitory concentration value (IC50), Mean
[3] = system: IGR37-GP cells (Dabrafenib-resistant); assay: as above; settings: read-out: Half-maximal inhibitory concentration (IC50)
501Mel cells (parental) = assay: as above; settings: read-out: Half-maximal inhibitory concentration (IC50)
[4] = system: 501Mel-GP cells (Dabrafenib-resistant); assay: as above; settings: read-out: Half-maximal inhibitory concentration (IC50)
[5] = system: IGR37-XP cells (Vemurafenib-resistant); assay: as above; settings: read-out: Half-maximal inhibitory concentration (IC50)
[6] = system: A375-XP cells (Vemurafenib-resistant); assay: as above; format: cell-based, human; settings: n.e. = did not suppress growth below 50% in the tested concentration range; for IC50: read-out: Half-maximal inhibitory concentration value (IC50), Mean
A375 cells = assay: Synergy determination with the Chou-Talalay method (CompuSyn), cell viability 72 h; format: cell-based, human; settings: 72 h cell viability, Chou-Talalay / Synergyfinder
Protocol: The Chou-Talalay method to determine possible synergistic effects of selected kinase inhibitor combinations was used as described in [19]. […] Cells were treated with either single inhibitors or combinations thereof at indicated amounts in technical triplicates. The amounts were pre-determined from each inhibitor’s IC50 value and inhibitors were assayed in a defined dilution series and at constant ratio when combined. […] Combination Index (CI) values showing either synergy (< 1) or antagonism (> 1) were calculated with the CompuSyn software (ComboSyn, Inc).

IGR37 cells (parental) = assay: Dose-response curves and IC50, PrestoBlue cell viability, 72 h; settings: read-out: Half-maximal inhibitory concentration (IC50)
[7] = system: NHEM (normal human epidermal melanocytes); assay: Dose-response curves and IC50 in non-cancer cells, cell viability, 72 h; settings: melanocytes (NHEM)
Protocol: (§1) The IC50 values (nM) were calculated as indicated in Methods.

[8] = system: NHDF (normal human dermal fibroblasts); assay: as above; settings: fibroblasts (NHDF)
Protocol: as §1

[9] = Homo sapiens, A-375, n.e. = did not suppress growth below 50% in the tested concentration range
[10] = n.e. = did not suppress growth below 50% in the tested concentration range

Cc1ccc(C(=O)Nc2ccc(CN3CCN(C)CC3)c(C(F)(F)F)c2)cc1C#Cc1cnc2cccnn12 [Ponatinib]
IC50 ([1]; Homo sapiens): 226 nM
IC50 ([2]; Homo sapiens, 72 h): 1340 nM
IC50 (A375 cells (parental); [9]): 628 nM
IC50 ([3]; Homo sapiens, 72 h): 1350 nM
IC50 (501Mel cells (parental); Homo sapiens, 72 h): 1170 nM
IC50 ([4]; Homo sapiens, 72 h): 1400 nM
IC50 ([5]; Homo sapiens, 72 h): 1430 nM
IC50 ([6]; Homo sapiens): 177 nM
synergistic effects with the BRAF inhibitors Vemurafenib and/or Dabrafenib (in words) (A375 cells): did not act synergistically
IC50 (IGR37 cells (parental); Homo sapiens, IGR-37, 72 h): 1080 nM

CC(C)(C)c1nc(-c2cccc(NS(=O)(=O)c3c(F)cccc3F)c2F)c(-c2ccnc(N)n2)s1 [Dabrafenib]
Half-maximal inhibitory concentration value (IC50), Mean [1]: n.e.
effect on healthy cells, cell viability (in words) [7]: did not have any effect
effect on healthy cells, cell viability (in words) [8]: did not have any effect
IC50 (A375 cells (parental); [9]): 1.9 nM
Half-maximal inhibitory concentration value (IC50), Mean [6]: n.e.

C[C@@H](Oc1cc(-c2cnn(C3CCNCC3)c2)cnc1N)c1c(Cl)ccc(F)c1Cl [Crizotinib]
IC50 ([1]; Homo sapiens): 5100 nM
IC50 ([2]; Homo sapiens, 72 h): 1350 nM
IC50 (A375 cells (parental); [9]): 5550 nM
IC50 ([3]; Homo sapiens, 72 h): 6740 nM
IC50 (501Mel cells (parental); Homo sapiens, 72 h): 6520 nM
IC50 ([4]; Homo sapiens, 72 h): 3280 nM
IC50 ([5]; Homo sapiens, 72 h): 5940 nM
IC50 ([6]; Homo sapiens): 5140 nM
IC50 (IGR37 cells (parental); Homo sapiens, IGR-37, 72 h): 6890 nM

CO[C@H]1C[C@@H]2CC[C@@H](C)[C@@](O)(O2)C(=O)C(=O)N2CCCC[C@H]2C(=O)O[C@H]([C@H](C)C[C@@H]2CC[C@@H](OC(=O)C(C)(CO)CO)[C@H](OC)C2)CC(=O)[C@H](C)/C=C(\C)[C@@H](O)[C@@H](OC)C(=O)[C@H](C)C[C@H](C)/C=C/C=C/C=C/1C [Temsirolimus]
Half-maximal inhibitory concentration value (IC50), Mean [1]: n.e.
Half-maximal inhibitory concentration value (IC50), Mean (A375 cells (parental); [10]): n.e.
IC50 ([3]; Homo sapiens, 72 h): 9450 nM
IC50 ([5]; Homo sapiens, 72 h): 6930 nM
Half-maximal inhibitory concentration value (IC50), Mean [6]: n.e.

O=C(O)c1ccc2c(c1)nc(Nc1cccc(Cl)c1)c1ccncc12 [cx-4945]
IC50 ([1]; Homo sapiens): 5340 nM
IC50 ([2]; Homo sapiens, 72 h): 4650 nM
IC50 (A375 cells (parental); [9]): 5620 nM
IC50 ([3]; Homo sapiens, 72 h): 9090 nM
IC50 (501Mel cells (parental); Homo sapiens, 72 h): 7170 nM
IC50 ([4]; Homo sapiens, 72 h): 4940 nM
IC50 ([5]; Homo sapiens, 72 h): 6100 nM
IC50 ([6]; Homo sapiens): 5210 nM
IC50 (IGR37 cells (parental); Homo sapiens, IGR-37, 72 h): 6660 nM

Nc1cc(C(F)(F)F)c(-c2cc(N3CCOCC3)nc(N3CCOCC3)n2)cn1 [BKM120]
IC50 [1]: 788 nM
IC50 ([2]; 501Mel-XP (Vemurafenib-resistant), 72 h cell viability): 818 nM
IC50 (A375 cells (parental); [10]): 951 nM
IC50 ([3]; IGR37-GP (Dabrafenib-resistant), 72 h cell viability): 1520 nM
IC50 (501Mel cells (parental); 501Mel parental, 72 h cell viability): 1160 nM
IC50 ([4]; 501Mel-GP (Dabrafenib-resistant), 72 h cell viability): 919 nM
IC50 ([5]; IGR37-XP (Vemurafenib-resistant), 72 h cell viability): 1160 nM
IC50 [6]: 1000 nM
IC50 (IGR37 cells (parental); IGR37 parental, 72 h cell viability): 916 nM
